Experimental data published in patent publication US9717681B2, “Formulations containing substituted imidazole derivatives” (R.P. Scherer Technologies, LLC, priority 2002, dated 2017).

How the values were obtained:
[1] = Protocol A: fipamezole administered orally in solution to healthy volunteers, pharmacokinetics, safety and tolerability; format: in vivo, human; settings: for Cmax / Tmax / AUC(0-t) / half-life: male, human, plasma; for Cmax: po, human plasma
Experimental: (§1) Fipamezole was administered orally in solution in increasing doses (0.5, 1, 3, 9, 18, 30 and 60 mg) to healthy volunteers (Caucasian males, 18-35 years old, 60-90 kg body weight). Blood samples were taken at intervals for pharmacokinetic evaluation up to 24 hours after each dose. Concentrations of fipamezole in plasma were measured with HPLC-MS/MS. Safety and tolerability were evaluated by standard safety laboratory determinations, ECG recordings, blood pressure and heart rate measurements and by adverse event questioning. The pharmacokinetics were evaluated using the Topfit 2.0 pharmacokinetic program. Cmax and tmax were read from the concentration vs. time curves and the apparent elimination phase half lives from the semi-logarithmic terminal part of the curve. AUC values were calculated both for infinity and up to the last measurable data point.

[2] = Protocol B: fipamezole administered as buccal spray to healthy volunteers, pharmacokinetics and tolerability; format: in vivo, human; settings: for Cmax: human plasma
Experimental: as §1, with “point. […] The protocol used was substantially as for protocol A, except administration was by buccal spray (0.75, 1.5, 3, 7.5, 15, 30, 60 and 90 mg single doses).” for “point.”

[3] = Pharmacokinetics of fast dispersing dosage form in dogs; format: in vivo, beagle dogs
Experimental: In this study fipamezole was administered orally as a fast dispersing tablet (formulation as for Example 3 above) (20 mg/kg) via the buccal cavity to pure bred beagle dogs (1 male and 1 female). Throughout the study (8 days, and 4 days pre-study) the subjects were monitored for viability, changes in behaviour, reaction to treatment and ill-health. In addition, body weight and food consumption were recorded. Blood was collected at 10, 20, 30 and 45 minutes and 1, 1.25, 1.5, 2, 2.5, 3, 4 and 8 hours after administration for plasma level analysis (LC/MS/MS method).

[4] = beagle dogs, fast dispersing tablet (formulation as Example 3), 20 mg/kg via buccal cavity

Absorption [3, 4]: rapidly absorbed | Time to peak plasma concentration [3, 4]: ≤ 10 min | Food consumption on the day of administration ([3]; beagle dogs, fast dispersing tablet, 20 mg/kg, probably due to frequent blood collection): low
Structure (SMILES): CCC1(c2c[nH]cn2)Cc2ccc(F)cc2C1.Cl (centres unmarked) [fipamezole, 4-(2-ethyl-5-fluoro-indan-2-yl)-1H-imidazole, hydrochloride salt]
Cmax ([1]; 0.5 mg): 0.05 ng/mL | Cmax ([1]; 1 mg): 0.08 ng/mL | Cmax ([1]; 3 mg): 0.23 ng/mL | Cmax ([1]; 9 mg): 1.09 ng/mL | Cmax ([1]; 18 mg): 1.31 ng/mL | Cmax ([1]; 60 mg): ~2 ng/mL | Tmax ([1]; oral solution, dose 0.5 mg): 0.88 h | AUC(0-t) ([1]; oral solution, dose 1 mg): 0.1 ng·h/mL | Tmax ([1]; oral solution, dose 1 mg): 0.83 h | AUC(0-t) ([1]; oral solution, dose 3 mg): 0.3 ng·h/mL | Tmax ([1]; oral solution, dose 3 mg): 0.67 h | AUC(0-t) ([1]; oral solution, dose 9 mg): 4.2 ng·h/mL | Tmax ([1]; oral solution, dose 9 mg): 0.67 h | half-life ([1]; oral solution, dose 9 mg): 2.2 h | AUC(0-t) ([1]; oral solution, dose 18 mg): 6 ng·h/mL | Tmax ([1]; oral solution, dose 18 mg): 0.83 h | half-life ([1]; oral solution, dose 18 mg): 2.4 h | AUC(0-t) ([1]; oral solution, dose 30 mg): 6.8 ng·h/mL | Tmax ([1]; oral solution, dose 30 mg): 1.25 h | half-life ([1]; oral solution, dose 30 mg): 3.1 h | AUC(0-t) ([1]; oral solution, dose 60 mg): 8.2 ng·h/mL | Tmax ([1]; oral solution, dose 60 mg): 1.06 h | half-life ([1]; oral solution, dose 60 mg): 1.8 h | Level of absorption vs dose ([1]; oral solution, 0.5-60 mg): not dose-proportional | Safety and tolerability ([1]; oral solution, 0.5-60 mg, healthy volunteers): safe and well tolerated | Absorption from the buccal mucosa into systemic circulation [2]: rapidly absorbed in a dose-dependent manner | Relation between dose and Cmax and AUC0-inf values [2]: linear correlation | Tolerability ([2]; all doses 0.75-90 mg single doses): well tolerated | Tmax ([2]; dose 0.75 mg): 0.72 h | Tmax ([2]; dose 1.5 mg): 0.72 h | Tmax ([2]; dose 7.5 mg): 0.72 h | Tmax ([2]; dose 15 mg): 0.72 h | Tmax ([2]; dose 30 mg): 0.72 h | Cmax ([2]; dose 30 mg): 49.23 ng/mL | Adverse effects seen after administration ([2]; frequently seen after administration): buccal erythema and whitening | Cmax ([2]; male, dose 0.75 mg, read-out: Cmax): 1.53 ng/mL | Cmax ([2]; male, dose 1.5 mg, read-out: Cmax): 3.13 ng/mL | Cmax ([2]; male, dose 3 mg, read-out: Cmax): 4.76 ng/mL | Cmax ([2]; male, dose 7.5 mg, read-out: Cmax): 13 ng/mL | Cmax ([2]; male, dose 15 mg, read-out: Cmax): 25.9 ng/mL | Cmax ([2]; male, dose 60 mg, read-out: Cmax): 92.9 ng/mL | Cmax ([2]; male, dose 90 mg, read-out: Cmax): 172 ng/mL | AUC(0-t) ([2]; male, human, plasma, dose 0.75 mg): 4.6 ng·h/mL | half-life ([2]; male, human, plasma, dose 0.75 mg, read-out: t1/2 (converted)): 1.47 h | AUC(0-t) ([2]; male, human, plasma, dose 1.5 mg): 9.99 ng·h/mL | half-life ([2]; male, human, plasma, dose 1.5 mg, read-out: t1/2 (converted)): 1.65 h | AUC(0-t) ([2]; male, human, plasma, dose 3 mg): 15.4 ng·h/mL | half-life ([2]; male, human, plasma, dose 3 mg, read-out: t1/2 (converted)): 1.6 h | Tmax ([2]; male, human, plasma, dose 3 mg, read-out: tmax): 0.78 h | AUC(0-t) ([2]; male, human, plasma, dose 7.5 mg): 40.8 ng·h/mL | half-life ([2]; male, human, plasma, dose 7.5 mg, read-out: t1/2 (converted)): 1.78 h | AUC(0-t) ([2]; male, human, plasma, dose 15 mg): 84.1 ng·h/mL | half-life ([2]; male, human, plasma, dose 15 mg, read-out: t1/2 (converted)): 1.97 h | AUC(0-t) ([2]; male, human, plasma, dose 30 mg): 157 ng·h/mL | half-life ([2]; male, human, plasma, dose 30 mg, read-out: t1/2 (converted)): 2.12 h | AUC(0-t) ([2]; male, human, plasma, dose 60 mg): 231 ng·h/mL | half-life ([2]; male, human, plasma, dose 60 mg, read-out: t1/2 (converted)): 3 h | Tmax ([2]; male, human, plasma, dose 60 mg, read-out: tmax): 0.46 h | AUC(0-t) ([2]; male, human, plasma, dose 90 mg): 467 ng·h/mL | half-life ([2]; male, human, plasma, dose 90 mg, read-out: t1/2 (converted)): 3.16 h | Tmax ([2]; male, human, plasma, dose 90 mg, read-out: tmax): 0.53 h | half-life ([2]; male, human, plasma, range over doses, longer times at larger doses, read-out: Apparent elimination phase half life): 1.2 to 3.5 h | Effect on body weight ([3]; beagle dogs, fast dispersing tablet, 20 mg/kg): no adverse effect | Adverse clinical signs ([3]; female beagle dog, fast dispersing tablet (formulation as Example 3), 20 mg/kg via buccal cavity): No adverse clinical signs | Adverse clinical signs ([3]; male beagle dog, fast dispersing tablet (formulation as Example 3), 20 mg/kg via buccal cavity): elevated pulse rate
